Reference: patent US12427151B2, “Compositions and method of treating cancer” (The Regents of the University of California, priority 2017, dated 2025)

Assays:
[1] = test system: normal human keratinocytes (NHEK); test: Cell proliferation assay (BrdU incorporation); type: cell-based; conditions: 24-hr incubation, until a very high dose (100 μg/mL)
Method: (a-b) Selective antiproliferative activity of 6-HAP against Pam212 squamous cell carcinoma, but not against normal keratinocytes. BrdU incorporation into Pam212 cells (b) or NHEKs (b) after 4-hr or 24-hr incubation, respectively, in suitable media containing indicated concentrations of 6-HAP or mitomycin C (10 μg/mL) (a). (c) Expression of mARC1 and mARC2 in NHEKs, squamous cell carcinoma (Pam212), melanoma (B16F10) and lymphoma cell lines (L5178). To compare relative expression level in each cells, data was shown as relative to GAPDH expression. (d) Expression of mARC1 and mARC2 in NHEKs treated with control siRNA, mARCI siRNA and mARC2 siRNA. (e) Effect of gene silencing with mARC1 and mARC2 siRNA on sensitivity to 6-HAP in NHEKs. NHEKs treated with each siRNA were incubated for 48 hrs and then incubated with 10 μg/mL of 6-HAP for 24 hrs.
Cell culture and cell proliferation assay. B16F10 mouse melanoma, Pam212, L5178 and YAC-1 mouse […] cell lines were obtained from American Type Culture Collection. […] After 4-hr (tumor cell lines) or 24-hr (NHEK) incubation with 6-HAP, proliferative activity of cells was colorimetrically determined by monitoring BrdU incorporation with Cell Proliferation kit according to the manual (Roche).

[2] = test system: L5178Y tk+/- mouse lymphoma cells; test: Mutagenic activity at the thymidine kinase (tk) locus; type: cell-based; conditions: compared to vehicle
Method: Because some nucleobase analogs exert mutagenic activities due to their misrecognition of wrong bases, mutagenic activity of 6-HAP was determined by detecting mutagenic events at the thymidine kinase (tk) locus of L5178Y tk^+/− mouse lymphoma cells.

[3] = test system: GAS (NZ131); test: BrdU incorporation assay in bacteria; type: cell-based, group A Streptococcus; conditions: 6-HAP 25 μg/mL, 30 or 60 min
Method: (§1) (a) Time course killing of GAS in THB containing 6-HAP (25 μg/mL), mitomycin C (5 μg/mL), or LL-37 (10 μM). At each indicated time point, live GAS in the media was measured by counting CFU on an agar plate. The data represent mean±SE of four individual experiments. (b) Membrane permeability of GAS incubated in THB containing 6-HAP (25 μg/mL), mitomycin C (5 μg/mL) and LL-37 (10 μM) for 1 hr. The bacteria with compromised plasma membranes (Red) can be distinguished from those with intact membranes (Green). (c) BrdU incorporation into nascent DNA of GAS after incubation with 6-HAP (25 μg/mL) or mitomycin C (5 μg/mL) in THB containing BrdU (10 μM) for 30 or 60 min. (d) BrdU incorporation into nascent DNA of S. epidermidis ATCC12228 after incubation with 6-HAP (25 μg/mL) or mitomycin C (5 μg/mL) in THB containing BrdU (10 μM) for 60 min. The data represent mean±SE of five individual experiments (*P<0.05 and **P<0.01 by Student's t-test vs vehicle control). (e-f) Capacity of 6-HAP to block in vitro DNA extension by Klenow fragment polymerase. […] Extension reaction was analyzed on a 20% acrylamide gel by electrophoresis (f). […] GAS survival was measured by counting CFU. […]
BrdU incorporation assay. […] BrdU incorporation into nascent DNA was measured in a time-dependent manner using BrdU incorporation assay kit (Roche) according to the manual.

[4] = test system: Klenow fragment (exo) DNA polymerase; test: In vitro DNA polymerization assay; type: biochemical; conditions: cell free system, in the presence of 6-HAP
Method: as §1, with “min.” for “min. The data represent mean±SE of five individual experiments (*P<0.05 and **P<0.01 by Student's t-test vs vehicle control). (e-f) Capacity of 6-HAP to block in vitro DNA extension by Klenow fragment polymerase.”
In vitro DNA polymerization assay. […] Fluorescence was visualized with Oddyssey Imaging System (LI-COR Biosciences, Lincoln, NE).
We next assessed the effect of 6-HAP on DNA synthesis. […] To directly examine the action of 6-HAP on DNA extension in a cell free system, 25-bp templates and matching 18-bp fluorescence primers were designed to measure DNA extension in vitro by Klenow (exo) DNA polymerase (FIG. 4e).

SMILES: ONc1ncnc2nc[nH]c12 [6-HAP, 6-N-hydroxyaminopurine]
- BrdU incorporation [1]: not affected
- mutagenic activity, mutation frequency at tk locus [2]: did not detect a difference
- BrdU incorporation into the genomic DNA of GAS [3]: Significant suppression
- DNA extension, template requiring adenosine (X=T) [4]: lack of extension
- DNA extension, template requiring cytosine (X=G) [4]: synthesis of the expected extended DNA product
